This note sets out measurements from US20220030868A1, “FUNGICIDAL HALOMETHYL KETONES AND HYDRATES” (FMC CORPORATION, priority 2018, published 2022).

As usually defined, the pest or weed control is the degree to which the test organism was suppressed or injured, in per cent.

SMILES strings stand for the structures.

Test [1] relates to Puccinia recondita f. sp. tritici. Kind of test: Test B: test suspension sprayed on wheat seedlings one day before inoculation with Puccinia recondita f. sp. tritici spores (wheat leaf rust), disease rating. The following applies: 100 = 100% disease control, 0 = no control. It counts as in vivo. An excerpt:
General protocol for preparing test suspensions for Tests A-C: the test compounds were first dissolved in acetone in an amount equal to 3% of the final volume and then suspended at the desired concentration (in ppm) in acetone and purified water (50/50 mix by volume) containing 250 ppm of the surfactant PEG400 (polyhydric alcohol esters). The resulting test suspensions were then used in Tests A-C. The test solution was sprayed to the point of run-off on wheat seedlings. The following day the seedlings were inoculated with a spore suspension of Puccinia recondita f. sp. tritici (the causal agent of wheat leaf rust) and incubated in a saturated atmosphere at 20° C. for 24 h, and then moved to a growth chamber at 20° C. for 6 days, after which time disease ratings were made. Results for Tests A-C are given in Table A. In the Table, a rating of 100 indicates 100% disease control and a rating of 0 indicates no disease control (relative to the controls). An asterisk “*” or a double asterisk “**” next to the rating value indicates a 50 ppm or 10 ppm test suspension was used, respectively. A dash (-) indicates the compound was not tested.

A further test deals with Phakopsora pachyrhizi. Briefly: Test A: test suspension sprayed on soybean seedlings one day before inoculation with Phakopsora pachyrhizi spores (Asian soybean rust), visual disease rating. In kind it is in vivo. The following applies: 100 = 100% disease control, 0 = no control; for pest or weed control at 50 ppm / pest or weed control at 10 ppm: Phakopsora pachyrhizi. The text has this: General protocol for preparing test suspensions for Tests A-C: the test compounds were first dissolved in acetone in an amount equal to 3% of the final volume and then suspended at the desired concentration (in ppm) in acetone and purified water (50/50 mix by volume) containing 250 ppm of the surfactant PEG400 (polyhydric alcohol esters). The resulting test suspensions were then used in Tests A-C.
The test solution was sprayed to the point of run-off on soybean seedlings. The following day the seedlings were inoculated with a spore suspension of Phakopsora pachyrhizi (the causal agent of Asian soybean rust) and incubated in a saturated atmosphere at 22° C. for 24 h, and then moved to a growth chamber at 22° C. for 8 days, after which time visual disease ratings were made.
Results for Tests A-C are given in Table A. In the Table, a rating of 100 indicates 100% disease control and a rating of 0 indicates no disease control (relative to the controls). An asterisk “*” or a double asterisk “**” next to the rating value indicates a 50 ppm or 10 ppm test suspension was used, respectively. A dash (-) indicates the compound was not tested.

Regarding `CCO/C(=C\Oc1ccc(Cn2cnc(C(=O)OC)n2)cc1)C(F)(F)F` [Compound 123], in test [1] (10 ppm test suspension), the “Test B rating (disease control)” value was 0%. Besides, the “Test A rating (disease control)” value in the test with Phakopsora pachyrhizi (10 ppm test suspension) was determined as 98%.
On to `CCOC(=O)c1cnn(CCc2ccc(OCC(O)(O)C(F)(F)F)cc2)c1` [Compound 131], for which the “Test B rating (disease control)” value in test [1] (50 ppm test suspension) turned out to be 86%. Also, the “Test A rating (disease control)” value in the test with Phakopsora pachyrhizi (50 ppm test suspension) is given as 99%.
Regarding `O=C(c1csc(Cc2ccc(OCC(O)(O)C(F)(F)F)cc2)n1)N1CCC(F)(F)C1` [Compound 135], the “Test B rating (disease control)” value in test [1] (10 ppm test suspension) amounted to 61%. Besides, the “Test A rating (disease control)” value with Phakopsora pachyrhizi (10 ppm test suspension) was 86%.
In the same order, the values of `CCOC(=O)c1csc(Cc2ccc(OCC(O)(O)C(F)(F)F)cc2)n1` [Compound 136] are 83% and 98%.
Take `CCOC(=O)c1csc(Cc2ccc(OCC3(C(F)(F)F)OCCO3)cc2)n1` [Compound 137]: in test [1] (10 ppm test suspension), the “Test B rating (disease control)” value worked out at 0%. For the same molecule, the “Test A rating (disease control)” value in the test with Phakopsora pachyrhizi (10 ppm test suspension) came out at 79%.
Regarding `N#Cc1ccc(OCC(O)(O)C(F)(F)F)cc1` [Compound 142], the “Test B rating (disease control)” value in test [1] (10 ppm test suspension) came out at 100%. Further, in the test with Phakopsora pachyrhizi (10 ppm test suspension), the “Test A rating (disease control)” value stood at 92%.
In the same order, the values of `CCO/C(=C\Oc1ccc(Cn2cncn2)cc1)C(F)(F)F` [Compound 157] are 9% and 0%.
`O=Cc1ccc(OCC(O)(O)C(F)(F)F)cc1` [Compound 177]: the “Test B rating (disease control)” value in test [1] (50 ppm test suspension) came out at 89%. Besides, in the test with Phakopsora pachyrhizi (50 ppm test suspension), the “Test A rating (disease control)” value came to 100%.
Take `CCOC(=O)c1cnn(Cc2ccc(OCC3(C(F)(F)F)OC(=O)[C@@H](C)O3)cc2)c1` (stereo partly shown) [Compound 187]: the “Test B rating (disease control)” value in test [1] (10 ppm test suspension) is given as 74%. Further, in the test on Phakopsora pachyrhizi (10 ppm test suspension), the “Test A rating (disease control)” value was 93%.
Consider `N#Cc1cnn(Cc2ccc(OCC(O)(O)C(F)(F)F)cc2)c1` [Compound 206], for which the “Test B rating (disease control)” value in test [1] (50 ppm test suspension) was determined as 98%. For the same molecule, the “Test A rating (disease control)” value with Phakopsora pachyrhizi (50 ppm test suspension) is 100%.
In the case of `O=C(c1csc(Cc2ccc(OCC(O)(O)C(F)(F)F)cc2)n1)N1CCC1` [Compound 215], the “Test B rating (disease control)” value in test [1] (10 ppm test suspension) is 55%. Besides, in the test on Phakopsora pachyrhizi (10 ppm test suspension), the “Test A rating (disease control)” value is listed as 80%.
On the same counts, the results for `COCCNC(=O)c1csc(Cc2ccc(OCC(O)(O)C(F)(F)F)cc2)n1` [Compound 223] are 0% and 75%.
For the molecule `CCOC(=O)c1cnn(Cc2ccc(OC(F)(F)C(O)(O)C(F)(F)F)cc2)c1` [Compound 227], the “Test B rating (disease control)” value in test [1] (10 ppm test suspension) was found to be 55%. Besides, the “Test A rating (disease control)” value in the test with Phakopsora pachyrhizi (10 ppm test suspension) was 99%.
For the molecule `COC(=O)c1ccc(OCC(O)(O)C(F)(F)F)cc1` [Compound 229, methyl 4-(3,3,3-trifluoro-2,2-dihydroxypropoxy)phenylcarboxylate], the results for the pest or weed control at 50 ppm (in test [1] (50 ppm test suspension); with Phakopsora pachyrhizi (50 ppm test suspension)) were 100% and 99%, respectively.
Regarding `CCOC(=O)c1ccn(Cc2ccc(O/C=C(\OCC)C(F)(F)F)cc2)n1` [Compound 231, ethyl 1-[[4-[[(1Z)-2-ethoxy-3,3,3-trifluoro-1-propen-1-yl]oxy]phenyl]methyl]-1H-pyrazole-3-carboxylate], the pest or weed control at 10 ppm came to 0% in test [1] (10 ppm test suspension) and 100% with Phakopsora pachyrhizi (10 ppm test suspension).
As to `CCOC(=O)c1ccn(Cc2ccc(OCC(O)(O)C(F)(F)F)cc2)n1` [Compound 233], the “Test B rating (disease control)” value in test [1] (50 ppm test suspension) came out at 96%. In the test with Phakopsora pachyrhizi (50 ppm test suspension), the “Test A rating (disease control)” value is 100%.
In the same order, the values of `CCOC(=O)c1ccnn1Cc1ccc(OCC(O)(O)C(F)(F)F)cc1` [Compound 234] are 92% and 100%.
Take `O=C(NCC1CC1)c1cnc(Cc2ccc(OCC(O)(O)C(F)(F)F)cc2)o1` [Compound 247]: the “Test B rating (disease control)” value in test [1] (10 ppm test suspension) is on record as 0%. Moreover, the “Test A rating (disease control)” value in the test with Phakopsora pachyrhizi (10 ppm test suspension) is reported as 13%.
As for `O=C(NCC1CC1)c1cnc(Cc2ccc(OCC3(C(F)(F)F)OCCO3)cc2)o1` [Compound 248], the “Test B rating (disease control)” value in test [1] (10 ppm test suspension) was determined as 0%. Moreover, the “Test A rating (disease control)” value in the test on Phakopsora pachyrhizi (10 ppm test suspension) was 71%.
In the same order, the values of `O=C(NCC1CC1)c1cnc(Cc2ccc(OCC(O)(O)C(F)(F)F)cc2)s1` [Compound 256] are 0% and 73%.
In the same order, the values of `O=C(NCC(F)(F)F)c1cnc(Cc2ccc(OCC3(C(F)(F)F)OCCO3)cc2)o1` [Compound 257] are 0% and 54%.
On the same counts, the results for `O=C(NCC1CC1)c1cnc(Cc2ccc(OCC3(C(F)(F)F)OCCO3)cc2)s1` [Compound 259] are 0% and 25%.
Turning to `CCO/C(=C\Oc1ccc(Cn2ncnc2SC)cc1)C(F)(F)F` [Compound 260], the “Test B rating (disease control)” value in test [1] (10 ppm test suspension) was 0%. In the test on Phakopsora pachyrhizi (10 ppm test suspension), the “Test A rating (disease control)” value is listed as 0%.
With `CCO/C(=C\Oc1ccc(Cn2cnc(SC)n2)cc1)C(F)(F)F` [Compound 261], in test [1] (10 ppm test suspension), the “Test B rating (disease control)” value worked out at 0%. Besides, the “Test A rating (disease control)” value with Phakopsora pachyrhizi (10 ppm test suspension) is 0%.
Turning to `CCOC(=O)c1cnn(Cc2ccc(OCC3(C(F)(F)F)OCCO3)c(F)c2)c1` [Compound 263, ethyl 1-[[3-fluoro-4-[[2-(trifluoromethyl)-1,3-dioxolan-2-yl]methoxy]phenyl]methyl]-1H-pyrazole-4-carboxylate], the values for the pest or weed control at 10 ppm (in test [1] (10 ppm test suspension); with Phakopsora pachyrhizi (10 ppm test suspension)) were 0% and 100%, respectively.
`CCOC(=O)c1cnn(Cc2cccc(OCC(O)(O)C(F)(F)F)c2)c1` [Compound 266, ethyl 1-[[3-(3,3,3-trifluoro-2,2-dihydroxypropoxy)phenyl]methyl]-1H-pyrazole-4-carboxylate]: the values for the pest or weed control at 50 ppm (in test [1] (50 ppm test suspension); in the test on Phakopsora pachyrhizi (50 ppm test suspension)) were 74% and 86%, respectively.
`O=C(NCC(F)(F)F)c1cnc(Cc2ccc(OCC(O)(O)C(F)(F)F)cc2)o1` [Compound 274]: the “Test B rating (disease control)” value in test [1] (10 ppm test suspension) stood at 0%. The “Test A rating (disease control)” value in the test on Phakopsora pachyrhizi (10 ppm test suspension) is on record as 48%.
As to `O=C(NCC(F)(F)F)c1cnc(Cc2ccc(OCC3(C(F)(F)F)OCCO3)cc2)s1` [Compound 275], in test [1] (10 ppm test suspension), the “Test B rating (disease control)” value came to 0%. For the same molecule, the “Test A rating (disease control)” value in the test on Phakopsora pachyrhizi (10 ppm test suspension) came out at 0%.
Consider `O=C(NCC(F)(F)F)c1cnc(Cc2ccc(OCC(O)(O)C(F)(F)F)cc2)s1` [Compound 277], for which the “Test B rating (disease control)” value in test [1] (10 ppm test suspension) is recorded as 45%. Also, the “Test A rating (disease control)” value in the test with Phakopsora pachyrhizi (10 ppm test suspension) is reported as 50%.
Consider `O=[N+]([O-])c1ccc(OCC(O)(O)C(F)(F)F)cc1` [Compound 280], for which, in test [1] (50 ppm test suspension), the “Test B rating (disease control)” value is given as 100%. The “Test A rating (disease control)” value in the test with Phakopsora pachyrhizi (50 ppm test suspension) came out at 100%.
Take `CCOC(=O)c1cnn(CCCc2ccc(OCC(O)(O)C(F)(F)F)cc2)c1` [Compound 286]: the “Test B rating (disease control)” value in test [1] (10 ppm test suspension) is on record as 55%. Also, the “Test A rating (disease control)” value in the test on Phakopsora pachyrhizi (10 ppm test suspension) is 87%.
As to `O=C(NCC(F)F)c1cnc(Cc2ccc(OCC(O)(O)C(F)(F)F)cc2)s1` [Compound 295], the “Test B rating (disease control)” value in test [1] (50 ppm test suspension) is 80%. Moreover, the “Test A rating (disease control)” value in the test with Phakopsora pachyrhizi (50 ppm test suspension) is recorded as 99%.
With `CCOC(=O)c1cnn(COCc2ccc(O/C=C(\OCC)C(F)(F)F)cc2)c1` [Compound 297, ethyl 1-[[4-[[(1Z)-2-ethoxy-3,3,3-trifluoro-1-propen-1-yl]oxy]phenylmethoxy]methyl]-1H-pyrazole-4-carboxylate], the pest or weed control at 10 ppm was found to be 0% in test [1] (10 ppm test suspension) and 100% in the test on Phakopsora pachyrhizi (10 ppm test suspension).
On the same counts, the results for `CCO/C(=C\Oc1cccc(Cn2cc(C(=O)OC)cn2)c1)C(F)(F)F` [Compound 330, methyl 1-[[3-[[(1Z)-2-ethoxy-3,3,3-trifluoro-1-propen-1-yl]oxy]phenyl]methyl]-1H-pyrazole-4-carboxylate] are 0% and 100%.
On the same counts, the results for `CCCOC(=O)c1cnn(Cc2cccc(O/C=C(\OCC)C(F)(F)F)c2)c1` [Compound 331, propyl 1-[[3-[[(1Z)-2-ethoxy-3,3,3-trifluoro-1-propen-1-yl]oxy]phenyl]methyl]-1H-pyrazole-4-carboxylate] are 0% and 100%.
Consider `CCOC(=O)c1cnn(COc2ccc(O/C=C(\OCC)C(F)(F)F)cc2)c1` [Compound 364, ethyl 1-[[4-[[(1Z)-2-ethoxy-3,3,3-trifluoro-1-propen-1-yl]oxy]phenoxy]methyl]-1H-pyrazole-4-carboxylate], for which the pest or weed control at 50 ppm in test [1] (50 ppm test suspension) amounted to 0%; in the test with Phakopsora pachyrhizi (50 ppm test suspension), 100%.
As to `COC(=O)c1cnn(Cc2ccc(OCC3(C(F)(F)F)OCCO3)cc2)c1` [compound 13], the “Test B rating (disease control)” value in test [1] (10 ppm test suspension) is 0%. In addition, in the test on Phakopsora pachyrhizi (10 ppm test suspension), the “Test A rating (disease control)” value is recorded as 99%.
On the same counts, the results for `CC(C)OC(=O)c1cnn(Cc2ccc(OCC3(C(F)(F)F)OCCO3)cc2)c1` [compound 14] are 0% and 100%.
